Experimental data from patent EP0392663A1, “Carboline derivative as a 5-HT3 receptor antagonist” (ONO PHARMACEUTICAL CO., LTD., priority 1989, dated 1990).
Counter-ions that a name gives are not always drawn.

How the values were obtained:
[1] = tested on: 5-HT₃ receptor; assay: Suppression of 5-HT-induced reflex bradycardia in urethane-anesthetized rats (5-HT₃ receptor antagonism in vivo); set-up: species or system Male Wistar rats; conditions: 5-HT i.v. 2 mins after
Method: Male Wistar rats were urethane-anesthetized and fixed. Cannulas were inserted to carotid artery and thigh vein as used for the recording of blood pressure end heart beat, and for the administration of compounds, respectively.
Several amounts of compound of the present invention were administered to the vein or duodenum. 5-HT was administered rapidly to the vein, 2 mins after. The suppression effect of the compounds was confirmed by the measurement of reflex bradycardia generated. (Nature 316, 11 (1985).)

[2] = Acute toxicity (LD₅₀) in mice; conditions: mouse, in vivo
Method: It was confirmed that the toxicity of the compounds of the present invention were very low. Therefore, the compounds of the present invention may be considered to be sufficiently safe and suitable for pharmaceutical use.
For example, the values of acute toxicity (LD₅₀) of 2-(5-methylimidazol-4-ylmethyl)-5-methyl-1,2-dihydro-γ--carbolin-1-one hydrochloride was 290 mg/kg animal body weight by oral administration and 48 mg/kg animal body weight by intravenous administration in mice, respectively.

Cc1[nH]cnc1Cn1ccc2c(c1=O)c1ccccc1n2C [2-(5-methylimidazol-4-ylmethyl)-5-methyl-1,2-dihydro-γ-carbolin-1-one hydrochloride]
ID₅₀ i.d. ([1]; compound administered to the duodenum): 7.7 mg/kg
ID₅₀ i.v. ([1]; compound administered to the vein): 0.3 mg/kg
LD50 ([2]; intravenous administration): 48 mg/kg
LD50 ([2]; oral administration): 290 mg/kg
